T1: RIM1 C2B (RIM1α C2B domain) (Rattus norvegicus, UniProt Q9JIR4)
T1 sequence (Q9JIR4 1447-1615): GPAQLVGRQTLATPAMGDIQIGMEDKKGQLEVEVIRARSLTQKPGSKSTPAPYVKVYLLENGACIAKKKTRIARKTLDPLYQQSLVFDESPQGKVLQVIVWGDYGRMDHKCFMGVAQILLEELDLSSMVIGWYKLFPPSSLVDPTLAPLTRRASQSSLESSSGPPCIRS


Tests used:
[1] = target: T1, RIM1 C2B (RIM1α C2B domain); experiment: 1H-15N HSQC NMR titration; type: binding
[2] = target: the molecule itself; experiment: AUC

Kd [1] [µM]	Molecule	Kd [2] [µM]
32 to 79	CCCC(=O)OC[C@H](COP(=O)(O)O[C@@H]1[C@H](O)[C@H](O)[C@@H](OP(=O)(O)O)[C@H](OP(=O)(O)O)[C@H]1O)OC(=O)CCC [diC4-PIP2]	–
–	RIM1α C2B domain (GST tag cleaved) (domain or fragment, rat) GPAQLVGRQTLATPAMGDIQIGMEDKKGQLEVEVIRARSLTQKPGSKSTPAPYVKVYLLENGACIAKKKTRIARKTLDPLYQQSLVFDESPQGKVLQVIVWGDYGRMDHKCFMGVAQILLEELDLSSMVIGWYKLFPPSSLVDPTLAPLTRRASQSSLESSSGPPCIRS	~3000

Reference: publication PMC5910229 (Neuron, 2018)
